In patent US20260108512A1, “COMPOUNDS, COMPOSITIONS AND METHODS OF TREATING DISORDERS” (HOTSPOT THERAPEUTICS, INC., priority 2022, published 2026):

Target: T1, Cbl-b (Homo sapiens, UniProt Q13191)
T1 construct: biotin (biotinylated protein)
Assay: Cbl-b LCK Ub TR-FRET assay
Assay type: biochemical
Details: average IC50, graded A-C; read-out: CBL-B_TR-FRET_AVG_IC50
Experimental: Compounds are 3-fold serially diluted in DMSO in a 384-well polypropylene plate (e.g., #P-05525-BC; Labcyte) to generate a source plate with 10 concentrations of each compound, top concentration=2 mM. 80 nL of DMSO or compounds are transferred to each well of a black 384-well ProxiPlate (e.g., #6008260; PerkinElmer) using a Labcyte Echo, 1×assay buffer (50 mM HEPES pH7.0, 100 mM NaCl, 0.01% BSA, 0.01% Triton-X100, 1 mM DTT), 2×enzyme solution (16 nM Biotin-Cbl-b or 12 nM Biotin-c-Cbl in 1×assay buffer), 2×kinase mixture (120 nM His-LCK, 1 mM ATP, 10 mM MgCl2 in assay buffer) and 2.33×detection mixture (4.66×solution 1:163 nM Anti-HA-D2 antibody (e.g., #610HADAB:PerkinElmer), 27.96 nM Streptavidin-EU (e.g., #AD0062; PerkinElmer), 1.398 mM EDTA in 1×assay buffer+4.66×solution 2:2.796 pM UBE2D2/Methylated-HA-Ubiquitin thioester adduct (e.g., BostonBiochem) in 1×assay buffer) are prepared. 4 μL of 2×enzyme solution are added to each well containing compound, briefly centrifuged to mix, and incubated for 60 min at room temperature. 4 μL of 2×kinase mixture is added, briefly centrifuged to mix, and incubated for 90 min. at room temperature. 6 μL of detection mixture is added to all wells and briefly centrifuged before incubating for 20 min at room temperature. Plates am read for TR-FRET using an Envision at excitation 340 nm, emission at 615 and 665 nm, 4 flashes per well. IC50 is generated using no LCK as the low control and DMSO as the high control.

T1 sequence (Q13191 40-426): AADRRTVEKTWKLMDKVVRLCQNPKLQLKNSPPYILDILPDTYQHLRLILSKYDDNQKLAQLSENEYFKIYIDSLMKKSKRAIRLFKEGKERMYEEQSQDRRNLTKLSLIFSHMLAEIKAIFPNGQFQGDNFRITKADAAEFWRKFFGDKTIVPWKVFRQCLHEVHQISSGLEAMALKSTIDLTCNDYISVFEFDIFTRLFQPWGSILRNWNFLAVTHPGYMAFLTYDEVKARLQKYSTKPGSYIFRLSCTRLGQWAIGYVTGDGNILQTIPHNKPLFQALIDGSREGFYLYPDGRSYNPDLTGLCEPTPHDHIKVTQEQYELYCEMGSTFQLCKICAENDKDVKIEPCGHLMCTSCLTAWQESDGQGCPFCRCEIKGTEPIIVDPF

First: COC[C@H]1CCCN1Cc1cc(C(F)(F)F)c2cn(-c3cccc(C4([C@H](F)c5nncn5C)COC4)c3)c(=O)n2c1 (single isomer, unassigned) [Compound 10]
Second: COC[C@H]1CCCN1Cc1cc(C(F)(F)F)c2cn(-c3cccc(C4([C@@H](F)c5nncn5C)COC4)c3)c(=O)n2c1 (single isomer, unassigned) [Compound 11]
The IC50 of the first is higher: 501 to 10000 nM for the first, 101 to 500 nM for the second.

`CC(C)[C@H]1CN(C)CCN1Cc1cc(C(F)(F)F)c2cn(-c3cccc(C4([C@H](F)c5nncn5C)CC(F)(F)C4)c3)c(=O)n2c1` (single isomer, unassigned) [Compound 13] and `CC(C)[C@H]1CN(C)CCN1Cc1cc(C(F)(F)F)c2cn(-c3cccc(C4([C@@H](F)c5nncn5C)CC(F)(F)C4)c3)c(=O)n2c1` (single isomer, unassigned) [Compound 12] cannot be ordered by IC50: < 100 nM for the first, < 100 nM for the second.

`Cn1cnnc1[C@H](F)C1(c2cccc(-n3cc4c(C(F)(F)F)cc(CNC5(C)CCC5)cn4c3=O)c2)COC1` (single isomer, unassigned) [Compound 2] and `Cn1cnnc1[C@@H](F)C1(c2cccc(-n3cc4c(C(F)(F)F)cc(CNC5(C)CCC5)cn4c3=O)c2)COC1` (single isomer, unassigned) [Compound 3] fall in the same range of IC50: 501 to 10000 nM for the first, 501 to 10000 nM for the second.

`CC(C)[C@H]1CN(C)CCN1Cc1cc(C(F)(F)F)c2cn(-c3cccc(C4([C@H](F)c5nncn5C)COC4)c3)c(=O)n2c1` (single isomer, unassigned) [Compound 21] and `CC(C)[C@H]1CN(C)CCN1Cc1cc(C(F)(F)F)c2cn(-c3cccc(C4([C@@H](F)c5nncn5C)COC4)c3)c(=O)n2c1` (single isomer, unassigned) [Compound 20] cannot be ordered by IC50: < 100 nM for the first, < 100 nM for the second.

Compared with `Cn1cnnc1[C@H](F)[C@@](C)(F)c1cccc(-n2cc3c(C(F)(F)F)cc(CN4CCC5(CC5)C4)cn3c2=O)c1` [Compound 9], `Cn1cnnc1[C@@H](F)[C@](C)(F)c1cccc(-n2cc3c(C(F)(F)F)cc(CN4CCC5(CC5)C4)cn3c2=O)c1` (single isomer, unassigned) [Compound 6] is lower in IC50: 501 to 10000 nM for the first, < 100 nM for the second.

`Cn1cnnc1[C@H](F)C1(c2cccc(-n3cc4c(C(F)(F)F)cc(CN)cn4c3=O)c2)COC1` [Compound 4] and `Cn1cnnc1[C@@H](F)C1(c2cccc(-n3cc4c(C(F)(F)F)cc(CN)cn4c3=O)c2)COC1` (single isomer, unassigned) [Compound 5] fall in the same range of IC50: 101 to 500 nM for the first, 101 to 500 nM for the second.

First: Cn1cnnc1[C@@H](F)C1(c2cccc(-n3cc4c(C(F)(F)F)cc(CN5CCC5)cn4c3=O)c2)COC1 (single isomer, unassigned) [Compound 19]
Second: Cn1cnnc1[C@H](F)C1(c2cccc(-n3cc4c(C(F)(F)F)cc(CN5CCC5)cn4c3=O)c2)COC1 (single isomer, unassigned) [Compound 18]
The IC50 of the first is higher: 101 to 500 nM for the first, < 100 nM for the second.

First: Cn1cnnc1[C@@H](F)C1(c2cccc(-n3cc4c(C(F)(F)F)cc(CN5CC(C)(CO)C5)cn4c3=O)c2)COC1 (single isomer, unassigned) [Compound 15]
Second: Cn1cnnc1[C@H](F)C1(c2cccc(-n3cc4c(C(F)(F)F)cc(CN5CC(C)(CO)C5)cn4c3=O)c2)COC1 (single isomer, unassigned) [Compound 14]
The IC50 of the first is lower: < 100 nM for the first, 101 to 500 nM for the second. The first is the more potent here.

First: Cn1cnnc1[C@H](F)C1(c2cccc(-n3cc4c(C(F)(F)F)cc(CN5CC6CC5C6)cn4c3=O)c2)COC1 (single isomer, unassigned) [Compound 16]
Second: Cn1cnnc1[C@@H](F)C1(c2cccc(-n3cc4c(C(F)(F)F)cc(CN5CC6CC5C6)cn4c3=O)c2)COC1 (single isomer, unassigned) [Compound 17]
The IC50 of the first is lower: < 100 nM for the first, 101 to 500 nM for the second. The first is the more potent here.

`Cn1cnnc1[C@@H](F)[C@@](C)(F)c1cccc(-n2cc3c(C(F)(F)F)cc(CN4CCC5(CC5)C4)cn3c2=O)c1` [Compound 8] and `Cn1cnnc1[C@@H](F)[C@](C)(F)c1cccc(-n2cc3c(C(F)(F)F)cc(CN4CCC5(CC5)C4)cn3c2=O)c1` (single isomer, unassigned) [Compound 7] fall in the same range of IC50: 101 to 500 nM for the first, 101 to 500 nM for the second.

In the case of `CC(C)[C@H]1CN(C)CCN1Cc1cc(C(F)(F)F)c2cn(-c3cccc(C4(Cc5nncn5C(F)F)COC4)c3)c(=O)n2c1` [Compound 1], the IC50 is reported as < 100 nM.
